Consider three compounds from patent US10512691B2, “Systems and methods for targeted imaging and ablation of cardiac cells” (THE REGENTS OF THE UNIVERSITY OF MICHIGAN, priority 2012, dated 2019).

Like-named read-outs stand apart in the source and are kept apart here. Peptide text beside a SMILES is read from it.

Data set [1] deals with cardiac tissue. In words: CTP transduction of cardiac tissue after peripheral intravenous injection. It is filed as in vivo. The following applies: 15 minutes post-peripheral intravenous injection in mice. An excerpt:
In some embodiments, nanoparticles comprise cardiac targeting moieties. In some embodiments, targeting moieties target myocytes. In some embodiments, the cardiac targeting moiety is cardiac targeting peptide (CTP) (Zahid et al., PloS one 2010; 5:e12252, herein incorporated by reference in its entirety). This peptide has the sequence […] (SEQ ID NO:1). In some embodiments, variants (e.g., sequence variants) of cardiac targeting peptide that retain the ability to specifically bind to myocytes are utilized. […] Thus, CTP is specific to the heart and cell type specific to myocytes. CTP also works in rat, and sheep and human (Zahid, et. al, supra).

Data set [2] relates to cardiac tissue. The following applies: contemplated, citing Zahid et al.; cited from earlier work.
Data set [3] can be described thus: In vivo blood stability of photosensitizer. Particulars: action of blood reducing enzymes. The source says:
In vivo testing as described above was repeated with an improved CTP-Ce6-8-arm-PEG platform as described above.

For data set [4] the following is noted: known, when injected in blood; cited from earlier work.

With `CC(C)C[C@H](NC(=O)[C@H](Cc1c[nH]cn1)NC(=O)[C@H](Cc1c[nH]c2ccccc12)NC(=O)[C@@H]1CCCN1C(=O)[C@H](C)N)C(=O)N[C@@H](CO)C(=O)N[C@@H](CO)C(=O)N[C@@H](CCC(N)=O)C(=O)N[C@@H](Cc1ccc(O)cc1)C(=O)N[C@@H](CO)C(=O)N[C@@H](CCCNC(=N)N)C(=O)N[C@H](C(=O)O)[C@@H](C)O` [CTP] (H-APWHLSSQYSRT-OH; N-terminus and C-terminus assumed), in data set [1], the “transduction of cardiac tissue” value was “efficiently and specifically transduce cardiac tissue”; the “uptake in other organs” value is “No other organ showed uptake except kidney glomeruli, limited to the cortex, and rare lung capillaries”. The “time for CTP to reach the heart” value in data set [2] is reported as “approximately 15 minutes”.
`CN(C)c1ccc2nc3ccc(=[N+](C)C)cc-3sc2c1` [methylene blue]: the “stability in blood in vivo” value in data set [3] is “decreased in vivo”.
With chlorin e6 [Ce6], in data set [4], the “stability in blood in vivo” value is reported as “remain stable when injected in blood”.
